Structures can show the parent of a compound that is named as a salt.
What was measured:
[1] = test system: cat coronary artery; assay: isolated perfused cat coronary artery, perfusion pressure; details: isolated perfused cat right coronary artery, 37° C., change in perfusion pressure
Protocol: Effects of prostacyclin analogs on isolated perfused cat coronary arteries were measured as follows.
Cats of either sex (2.5-3.5 kg) were anesthetized with sodium pentobarbital (30 mg/kg) given intravenously. Hearts were rapidly excised and placed in oxygenated (95% O2 +5% CO2) ice-cold Krebs-Henseleit (K-H) solution of the following millimolar composition: NaCl, 118; KCl, 4.75; CaCl2.H2 O, 2.54; KH2 PO4, 1.19; MgSO4.7H2 O, 1.19; NaHCO3, 12.5; glucose, 10.00. A 20-gauge stainless steel cannula was inserted into the right coronary artery via the coronary ostium. Distal to the cannula, approximately 1 cm of coronary artery was dissected free of surrounding tissue. The section of right coronary artery with the cannula in place was excised from the heart and immediately transferred to a constant flow perfusion apparatus.
The perfusion apparatus consists of a reservoir containing 20 ml of warm (37° C.) oxygenated (95% O2 +5% CO2) K-H solution which bathes the coronary artery and serves as recirculating perfusate. An increase in perfusion pressure indicates vasoconstriction, whereas a decrease in perfusion pressure signifies vasodilation. Following an initial 1 hr. equilibrium period, vascular responsiveness was established by adding 25 mM KCl. After washing with fresh K-H solution for 20-30 mins., the preparation achieved a relatively constant low basal tone. Basal perfusion pressure averaged 50±2.5 mm Hg. Fresh K-H dilutions of stock prostacyclin analog concentrations were added to the perfusate reservoir in 0.1-0.2 ml volumes. Changes in perfusion pressure in response to prostacyclin analog addition generally plateaus within 5 mins. of administration.

[2] = test system: human and rabbit citrated platelet-rich plasma; assay: platelet aggregation, citrated platelet-rich plasma in a chronolog aggregometer (agonistic and antagonistic activity vs ADP); assay type: cell-based; details: 20 mM and 2 μM (so in the source), inhibition of aggregation by 2 μM ADP, or antagonism of 5 mM prostacyclin
Protocol: Effects of prostacyclin analogs on platelet aggregation was evaluated using human and rabbit citrated platelet-rich plasma in a chronolog aggregometer at […]. Each of the analogs was tested at two concentrations (20 mM and 2 μM) for agonistic activity (inhibition of aggregation induced by 2 μM ADP) and antagonistic activity (prevention of the inhibition of ADP-induced aggregation by 5 mM prostacyclin).

[3] = half-life in saline / stability in solution (Table 1); assay type: physicochemical; details: 250° C. (so in the source); for half-life: read-out: t 1/2 saline
Source text: The removal of the protecting groups R^1, R^2 and R^3 from the resulting products of the oxidation, i.e, the allylic oxygen cyclic ethers or sulfones or the vinylic sulfoxides, or sulfones, can be carried out with acid or base or sequentially with both, if necessary, and yields prostacyclin isomers and analogs. A particularly useful prostacyclin sulfur analog, 6,9α-thiaprostacyclin ester can be obtained by reducing a 6,9α-sulfoxaprostacyclin ester--obtained as described supra--with a reducing agent such as trimethylsilyliodide.

[4] = solubility (analytical data of methyl ester); assay type: physicochemical
[5] = background statement; cited from earlier work
[6] = stability of the sodium salt in solution (preparative examples); assay type: physicochemical; details: sodium salt after hydrolysis with NaOH in 90% ethanol
Protocol: Acidification of this compound in aqueous solutions leads to the corresponding acid which can be extracted with ether and purified chromatographically.
The critical intermediate for this synthesis is 11,15-diol, 5-phenylseleno,6,9α-thiaprostacyclin methyl ester IV (R^1 =--CH3, R^2 =R^3 =H, Z=--S--). The preparation of this intermediate is described in Example 10a. When this intermediate was oxidized with 3.3 equivalents of m-chloroperbenzoic acid in methylene chloride -78°→20° C. for 24 hours, the 6,9α-sulfoprostacyclin methyl ester IX was produced in 85% yield (IX, R^1 =--CH3, R^2 =R^3 =H, n=2). It was isolated by prep layer chromatography and hydrolyzed with NaOH in 90% ethanol at 25° C. to afford the corresponding sodium salt IX.

Molecule	half-life [3] [h]	t 1/2 saline [3] [h]	Biological Activity: Cat Coronary Artery [1]	Biological Activity: Platelet Aggregation [2]	other results
CCCCCC(O)/C=C/C1C(O)CC2OC(/C=C/CCC(=O)O)CC21 (stereo not drawn) [4(E)-9-deoxy-6,9α-epoxy-Δ^4 -isoprostacyclin(6β)]	–	> 3	Constrictor(P)	Inhibitor(P)	–
6,9-sulfo-4(E)isoprostacyclin, 6αisomer	–	> 24	Constrictor(M)	Inhibitor	–
CCCCC[C@H](O)/C=C/[C@@H]1[C@H]2C/C(=C/CCCC(=O)OC)S(=O)(=O)[C@H]2C[C@H]1O [6,9α-sulfoprostacyclin methyl ester]	–	–	–	–	solubility [4]: common organic solvents
CCCCC[C@H](O)/C=C/[C@@H]1[C@H]2C/C(=C/CCCC(=O)O)O[C@H]2C[C@H]1O [Natural Prostacyclin, 6,9α-oxido-11α,15α-dihydroxyprosta-(Z)5, (E)13-dienoic acid, reference compound]	–	–	Dilator(P)	Inhibitor(P)	biological half-life [5]: 2 minutes
CCCCC[C@H](O)/C=C/[C@@H]1[C@H]2C/C(=C/CCCC(=O)O)S(=O)(=O)[C@H]2C[C@H]1O [5(Z)-6,9α-sulfoprostacyclin sodium salt]	–	–	–	–	stability of sodium salt in solution [6]: quantitatively stable in aqueous solution
CCCCCC(O)/C=C/C1C(O)CC2OC(/C=C/CCC(=O)O)CC21 (stereo not drawn) [4(E)-9-deoxy-6,9α-epoxy-Δ^4 -isoprostacyclin(6α)]	–	> 3	Constrictor	Antagonist	–
CCCCC[C@H](O)/C=C/[C@@H]1[C@H]2C/C(=C/CCCC(=O)O)[S+]([O-])[C@H]2C[C@H]1O (stereo partly drawn) [5(Z)-6,9α-sulfoxaprostacyclin sodium salt]	–	–	–	–	stability of sodium salt in solution [6]: stable solution
CCCCC[C@H](O)/C=C/[C@@H]1[C@H]2CC(/C=C/CCC(=O)OC)S(=O)(=O)[C@H]2C[C@H]1O (stereo partly shown) [6,9-sulfo-4(E) is oprostacyclin methyl ester]	–	–	–	–	solubility [4]: CH2 Cl2 and common organic solvents

More lines, main results first:

half-life [3] [h]	t 1/2 saline [3] [h]	Molecule	Biological Activity: Cat Coronary Artery [1]	Biological Activity: Platelet Aggregation [2]	other results
> 24	–	CCCCC[C@H](O)/C=C/[C@@H]1[C@H]2C/C(=C/CCCC(=O)O)S(=O)(=O)[C@H]2C[C@H]1O [6,9-sulfo-5(Z)prostacyclin]	Constrictor(M)	Antagonist(M)	–
–	> 24	6,9-sulfo-4(E)isoprostacyclin, 6βisomer	Constrictor	Antagonist	–
> 24	–	CCCCC[C@H](O)/C=C/[C@@H]1[C@H]2C/C(=C/CCCC(=O)O)[S+]([O-])[C@H]2C[C@H]1O (stereo partly shown) [6,9-sulfoxa-5(Z)prostacyclin]	Little activity	Little activity	–
> 24	–	CCCCC[C@H](O)/C=C/[C@@H]1[C@H]2C/C(=C\CCCC(=O)O)[S+]([O-])[C@H]2C[C@H]1O (stereo partly shown) [6,9-sulfoxa-5(E)prostacyclin]	Little activity	Little activity	–
> 3	–	CCCCC[C@H](O)/C=C/[C@@H]1[C@H]2C/C(=C/CCCC(=O)O)S[C@H]2C[C@H]1O [6,9α-Thia-5(Z)prostacyclin]	Very little activity, if any	Very little activity, if any	–
